Data set [1] is classed as physicochemical. On the procedure: c-di-GMP, CGMP and 5′-GMP nucleotides used. c-di-GMP used in the studies in this example was biochemically synthesized in pure form using a recently described novel synthesis method that produces a pure and high yielding preparation of c-di-GMP diammonium salt (FIG. 5A) (Hayakawa et al., 2003). Before use, the purity and stability of lyophilized c-di-GMP was determined by first resuspending the molecule in 0.9% NaCl creating a 2 mM solution then confirmed by HPLC analysis and ESI-TOF MS spectrometry. The cGMP (guanosine 3′, 5′-cyclic monophosphate, Sigma #G7504) and 5′-GMP (guanosine 5′-monophosphate, TCI, Tokyo Kasei Kogyo Co.) nucleotides were also used. Unless otherwise stated, a 4 mM stock solution of each nucleotide in 0.9% NaCl was prepared and stored at 4° C. until needed.
c-di-GMP stability tests. Although the term c-di-GMP is used here, c-di-GMP diammonium salt (and not the free diphosphoric acid) was used for these stability tests. (i) In boiling water: A 2 mM solution of c-di-GMP in water was prepared by dissolving 2.42 mg (3.3 μmol) of c-di-GMP in 1.65 mL of ion-exchanged/ion-free water (prepared by passing distilled water through ion-exchange resins). This solution was heated at 100° C. for 10 min and then concentrated under reduced pressure. The resulting residual was subjected to the HPLC analysis under conditions shown below. (ii) In pH 3 solution: From the 2 mM c-di-GMP aqueous solution described above, 500 μl (containing […] of c-di-GMP) was dissolved in 20 mL of 1 mM HCl to produce a solution with pH 3 (confirmed by pH meter). The resulting solution was stirred at room temperature for 1 h and then neutralized by the addition of 200 mL of a 0.1 mM NaOH. Water was evaporated under reduced pressure and the resulting residue was subjected to HPLC analysis. (iii) In pH 10 solution: From the 2 mM c-di-GMP aqueous solution described above, 500 μl (containing […] of c-di-GMP) was dissolved in 200 mL of a 0.1 mM NaOH aqueous solution to produce a solution with pH 10 (confirmed by pH meter). The resulting solution was stirred at room temperature for 1 h. The reaction was quenched by addition of 20 mL of a 1 mM HCl. Concentration of the resulting neutral solution under reduced pressure gave a residual material that was subjected to the HPLC analysis. The HPLC analysis was performed on a Waters 2695 Separation Module with a Waters 2996 Photodiode Array Detector under the following conditions. Column: Nacalai Tesque COSMOSIL 5C18-AR-II column (4.6 mm (diameter)×250 mm (length)); detection: 254 nm of UV ray; temperature: 40° C.; eluent: A=0.9% NaCl (aq), B=a 20:80 mixture of water:acetonitrile; flow rate:1 mL/min; 0-10 min: A 100%; 10-60 min: linear gradient from A100%/B 0% to A 40% to B 60%.

For data set [2] the following is noted: 0.2 N NaOH, ~pH 13.5, 37° C. for 24 h; Ross et al.; cited from earlier work.
For data set [3], the system named is S. aureus DK825. The data set is described as follows: Coagulase production (bound or free). Format: cell-based, Staphylococcus aureus.
The subject of data set [4] is S. aureus DK825. The data set can be described thus: Effect on 24 h pre-formed biofilms. The data set is classed as cell-based, Staphylococcus aureus. The settings on record: 200 μM added to 24 h pre-formed biofilm, further 24 h. On the procedure: Effect of c-di-GMP on S. aureus pre-formed biofilms. S. aureus DK825 was subcultured from glycerol stocks onto blood agar plate and incubated at 37° C. statically. A single colony was inoculated into 5 ml TSB broth (containing 0.25% glucose) and incubated at 37° C. overnight with shaking at 250 rpm until the culture reached OD660˜3.0. Following incubation the culture was diluted to 1:250 with fresh TSB broth and a 200 μl of the diluted culture was transferred into each well of microtitre plate and the plate containing wells with S. aureus cultures was incubated statically at 37° C. for 24 h. After 24 h, an appropriate volume of c-di-GMP was added to give a final concentration of 200 μM and represented the “treated” sample. As an “untreated” control, an identical volume of 0.9% NaCl was added to independent wells. The plates were then incubated statically at 37° C. for an additional 24 h. Following incubation the culture was discarded and microtitre plate was washed twice with 1X PBS. An equal volume (260 μl) of 1X PBS was added to each well for washing. The plates were then kept for drying on paper towel ˜30 min. A 260 μl of 0.1% crystal violet was added to each well to stain the cells in the biofilm and the plates were incubated at room temperature for 30 min. […] To quantitatively assay the amount of biofilm, the OD570 was measured by a spectrophotometer (SpectraMAX 250, Molecular Devices). […]

Data set [5] deals with S. aureus Newbould 305 strain. The data set can be described thus: Mouse mastitis model of S. aureus infection. Format: in vivo, Staphylococcus aureus. On the procedure: A mouse mastitis model of S. aurreus infection using the S. aureus Newbould 305 strain (Brouillette et al., 2003, 2004a and 2004b) was used to show the effectiveness of treatment with c-di-GMP. Three mice per group and two glands per mouse were used for a total of six samples per treatment. 100 CFU (colony forming units) of S. aureus Newbould 305 strain were inoculated into each mammary gland. Five or 50 nanomoles of c-di-GMP was administered by injection twice into each mammary gland at 0 hr. (pre-mixed with the S. aureus inoculum in 100 μl volume, i.e., 50 or 500 μM concentration) and at 4 hr. post-infection (in 50 μl, i.e., 100 or 1000 μM). The mammary glands were harvested at 10 hrs. post-infection. Considering the volume of the mammary gland with milk to be about 250 μl, the final concentration of c-di-GMP in the mammary gland at each injection was estimated to be 20 μM or 200 μM.

`Nc1nc2c(ncn2C2OC3COP(=O)(O)OC4C(COP(=O)(O)OC3C2O)OC(n2cnc3c(=O)[nH]c(N)nc32)C4O)c(=O)[nH]1` (stereo not drawn) [c-di-GMP, 3′,5′-cyclic diguanylic acid]: in data set [1], the solubility entry is reported as “soluble”, the “stability in 100 mM ammonium acetate buffer” value is reported as “stable”, the “stability in 100 mM phosphate buffer” value was “stable” and the “stability in 0.9% NaCl solution (monomeric structure)” value is reported as “very stable”. For the same compound, in data set [1], the “stability in physiological saline” value is given as “stable”, the “stability of 2 mM stock solution in water” value is “formation of an aggregated product” and the “stability of neat (lyophilized) form on storage” value is reported as “formed aggregate molecules”. Moreover, in data set [2], the “stability in relatively strong alkali (cellulose activating activity)” value is “labile”. Also, the “coagulase production treated vs untreated” value in the data set on S. aureus DK825 [3] was “no difference”. Besides, in the data set on S. aureus DK825 [4], the “reduction of further biofilm development” value is reported as ~75%. In data set [5] (5 or 50 nanomoles per injection), the “effect on CFU counts in the mammary gland” value is “significant dose-dependent suppressing effect”. Further, in data set [5] (50 nanomoles injected into mammary gland at 0 and 4 hr., harvest 10 hrs. post-infection), the “inhibition of S. aureus infection of the mammary gland (CFU counts)” value is “at least 10 fold”.

(Values after patent publication US8367716B2 (priority 2003, dated 2013).)
